Measured values: patent publication US20240343694A1, “PYRIMIDINE DERIVATIVE, METHOD FOR PREPARING SAME, AND PHARMACEUTICAL COMPOSITION FOR PREVENTING OR TREATING CANCER COMPRISING SAME AS ACTIVE INGREDIENT” (KOREA RESERARCH INSTITUTE OF CHEMICAL TECHNOLOGY, priority 2021, published 2024)

Experiments:
[1] = test system: Ba/F3 HER2 A775_G776insYVMA; assay: Growth inhibition of Ba/F3 HER2 mutant cells (CellTiter-Glo); type: cell-based; details: Mus musculus, BaF3, 72 hours
Outline: (§1)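 Ba/F3 cells carrying HER2 A775_G776insYVMA or G776delinsVC were seeded at 1,000 cells/well and dosed 24 h later at 0.01-10 μM (8 concentrations including 0). After 72 h, viability was read as cellular ATP by CellTiter-Glo luminescence, and IC50 values were calculated from the 8-point curves.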

[2] = test system: Ba/F3 HER2 G776delinsVC; assay: as above; type: cell-based; details: Mus musculus, BaF3, 72 hours
Outline: as §1

[3] = molecular target: EGFR A763_Y764insFHEA (Homo sapiens (Human), UniProt P00533, INS763FHEA); assay: HTRF inhibitory activity against EGFR mutant enzyme (EGFR A763_Y764insFHEA); type: biochemical; details: recombinant enzyme, 37° C. for 2 hours
Outline: (§2)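 Recombinant EGFR del19 or A763_Y764insFHEA was premixed with compound in 50 mM Tris pH 7.5 with 7.5 mM MgCl2 and 1 mM DTT. ATP (50 mM as printed) and biotin-peptide (0.5 mM) were added and reacted 2 h at 37 °C. The HTRF 665/615 read used streptavidin-XL665 and Eu anti-phosphotyrosine. IC50 was fitted from 7 concentrations.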

[4] = test system: Ba/F3 EGFR D770_N771insSVD; assay: Growth inhibition of Ba/F3 EGFR mutant cells (CellTiter-Glo); type: cell-based; details: Ba/F3 EGFR-D770-N771ins_SVD, 72 hours
Outline: (§3)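 Ba/F3 cells expressing either EGFR insertion mutant were seeded at 1,000 cells/well and dosed 24 h later at eight concentrations from 0 to 10 μM. After 72 h, viability was read by CellTiter-Glo ATP signal. IC50 (μM) was fitted from the eight-point curves.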

[5] = test system: Ba/F3 EGFR V769_D770insASV; assay: as above; type: cell-based; details: 72 hours
Outline: as §3

[6] = molecular target: EGFR del19 (Homo sapiens (Human), UniProt P00533, DEL746-750); assay: HTRF inhibitory activity against EGFR mutant enzyme (EGFR del19); type: biochemical; details: recombinant enzyme, 37° C. for 2 hours
Outline: as §2

[7] = molecular target: HER2 A775_G776insYVMA (Homo sapiens (Human), UniProt P04626, INS775YVMA); assay: HTRF inhibitory activity against HER2 mutant enzyme; type: biochemical; details: recombinant enzyme, 37° C. for 2 hours
Outline: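 Recombinant HER2 A775_G776insYVMA preincubated with compound, then […] and biotinylated peptide ([…]) added; 2 h at 37 °C in Tris-HCl pH 7.5 buffer with MgCl2, DTT. HTRF detection (Eu anti-phosphotyrosine/streptavidin-XL665); IC50 from 7 concentrations.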

Chain of HER2 A775_G776insYVMA (P04626 other isoform, or with tags, fused parts or gaps del 1-675/ins YVMA behind 775 limits assumed): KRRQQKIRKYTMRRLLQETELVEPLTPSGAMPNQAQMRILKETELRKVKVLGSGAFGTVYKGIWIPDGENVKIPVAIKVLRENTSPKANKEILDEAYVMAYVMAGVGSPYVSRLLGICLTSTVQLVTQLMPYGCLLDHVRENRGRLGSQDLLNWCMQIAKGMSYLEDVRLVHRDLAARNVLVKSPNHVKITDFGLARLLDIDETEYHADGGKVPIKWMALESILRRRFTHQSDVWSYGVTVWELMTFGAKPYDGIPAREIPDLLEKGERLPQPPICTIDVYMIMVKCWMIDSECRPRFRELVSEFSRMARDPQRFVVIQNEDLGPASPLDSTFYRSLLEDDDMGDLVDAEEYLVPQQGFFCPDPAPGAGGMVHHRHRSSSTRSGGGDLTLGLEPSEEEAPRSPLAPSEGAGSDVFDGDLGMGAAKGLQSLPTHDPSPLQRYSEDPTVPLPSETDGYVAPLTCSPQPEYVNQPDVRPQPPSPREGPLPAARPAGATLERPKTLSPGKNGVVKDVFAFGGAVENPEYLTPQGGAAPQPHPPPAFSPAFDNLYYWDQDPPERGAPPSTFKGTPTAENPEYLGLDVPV
Chain of EGFR del19 (P00533 other isoform, or with tags, fused parts or gaps del 1-668/del 746-750 limits assumed): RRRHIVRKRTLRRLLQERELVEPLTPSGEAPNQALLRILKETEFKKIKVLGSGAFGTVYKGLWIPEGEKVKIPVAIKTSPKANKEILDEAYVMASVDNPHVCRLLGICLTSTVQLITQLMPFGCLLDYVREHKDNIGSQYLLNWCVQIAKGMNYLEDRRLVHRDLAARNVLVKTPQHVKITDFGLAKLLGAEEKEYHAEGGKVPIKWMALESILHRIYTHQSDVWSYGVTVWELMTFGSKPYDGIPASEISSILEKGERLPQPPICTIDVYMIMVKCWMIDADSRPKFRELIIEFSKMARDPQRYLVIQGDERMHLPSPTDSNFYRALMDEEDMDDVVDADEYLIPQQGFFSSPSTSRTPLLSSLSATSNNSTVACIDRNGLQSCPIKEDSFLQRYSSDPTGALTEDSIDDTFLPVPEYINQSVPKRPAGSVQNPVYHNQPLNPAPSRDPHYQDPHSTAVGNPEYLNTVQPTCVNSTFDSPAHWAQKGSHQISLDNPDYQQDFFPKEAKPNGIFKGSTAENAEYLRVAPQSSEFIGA
Chain of EGFR A763_Y764insFHEA (P00533 other isoform, or with tags, fused parts or gaps del 1-694/ins FHEA behind 763 limits assumed): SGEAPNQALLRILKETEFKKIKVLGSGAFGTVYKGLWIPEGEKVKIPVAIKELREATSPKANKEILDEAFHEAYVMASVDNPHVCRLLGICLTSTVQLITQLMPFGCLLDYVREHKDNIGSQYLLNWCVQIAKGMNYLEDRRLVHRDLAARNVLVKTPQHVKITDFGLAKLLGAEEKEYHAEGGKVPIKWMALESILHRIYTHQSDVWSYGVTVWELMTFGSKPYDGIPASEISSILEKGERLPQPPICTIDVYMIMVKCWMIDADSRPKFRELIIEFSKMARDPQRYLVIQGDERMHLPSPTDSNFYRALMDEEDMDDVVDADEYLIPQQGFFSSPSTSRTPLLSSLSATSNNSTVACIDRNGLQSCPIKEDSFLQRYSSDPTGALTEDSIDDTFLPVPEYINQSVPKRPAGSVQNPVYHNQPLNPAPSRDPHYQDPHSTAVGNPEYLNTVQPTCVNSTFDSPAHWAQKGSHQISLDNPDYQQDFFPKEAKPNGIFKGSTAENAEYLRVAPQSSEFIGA

SMILES	IC50 [1] [nM]	IC50 [2] [nM]	IC50 [3] [nM]	IC50 [4] [nM]	IC50 [5] [nM]	IC50 [6] [nM]	IC50 [7] [nM]
C=CC(=O)Nc1cc(Nc2ncc(Cl)c(Nc3ccc(C)c(C)c3N(C)C(C)=O)n2)c(OC)cc1N(C)CCN(C)C [Example 83, N-(5-((5-chloro-4-((3,4-dimethyl-2-(N-methylacetamido)phenyl)amino)pyrimidin-2-yl)amino)-2-((2-(dimethylamino)ethyl)(methyl)amino)-4-methoxyphenyl)acrylamide]	> 100	< 10	19	30 to 50	30 to 50	3	374
C=CC(=O)Nc1cc(Nc2ncc(Cl)c(Nc3ccc(C)c(C)c3NC(C)=O)n2)c(OC)cc1N(C)CCN(C)C [Example 84, N-(5-((4-((2-acetamido-3,4-dimethylphenyl)amino)-5-chloropyrimidin-2-yl)amino)-2-((2-(dimethylamino)ethyl)(methyl)amino)-4-methoxyphenyl)acrylamide]	> 100	< 10	3	30 to 50	30 to 50	1	52
C=CC(=O)Nc1cc(Nc2ncc(Cl)c(Nc3cccc(C)c3N(C)C(C)=O)n2)c(OC)cc1N(C)CCN(C)C [Example 85, N-(5-((5-chloro-4-((3-methyl-2-(N-methylacetamido)phenyl)amino)pyrimidin-2-yl)amino)-2-((2-(dimethylamino)ethyl)(methyl)amino)-4-methoxyphenyl)acrylamide]	> 100	10 to 30	43	30 to 50	30 to 50	18	871
C=CC(=O)Nc1cc(Nc2ncc(Cl)c(Nc3cccc(C)c3NC(C)=O)n2)c(OC)cc1N(C)CCN(C)C [Example 86, N-(5-((4-((2-acetamido-3-methylphenyl)amino)-5-chloropyrimidin-2-yl)amino)-2-((2-(dimethylamino)ethyl)(methyl)amino)-4-methoxyphenyl)acrylamide]	> 100	< 10	20	30 to 50	30 to 50	2	157
C=CC(=O)Nc1cc(Nc2ncc(Cl)c(Nc3ccc(C)cc3N(C)C(C)=O)n2)c(OC)cc1N(C)CCN(C)C [Example 87, N-(5-((5-chloro-4-((4-methyl-2-(N-methylacetamido)phenyl)amino)pyrimidin-2-yl)amino)-2-((2-(dimethylamino)ethyl)(methyl)amino)-4-methoxyphenyl)acrylamide]	> 100	< 10	24	30 to 50	30 to 50	4	107
C=CC(=O)Nc1cc(Nc2ncc(Cl)c(Nc3ccc(C)cc3NC(C)=O)n2)c(OC)cc1N(C)CCN(C)C [Example 88, N-(5-((4-((2-acetamido-4-methylphenyl)amino)-5-chloropyrimidin-2-yl)amino)-2-((2-(dimethylamino)ethyl)(methyl)amino)-4-methoxyphenyl)acrylamide]	30 to 50	< 10	2	10 to 30	10 to 30	< 1	14
C=CC(=O)Nc1cc(Nc2ncc(Cl)c(Nc3ccccc3N(C)C(C)=O)n2)c(OC)cc1N(C)CCN(C)C [Example 89, N-(5-((5-chloro-4-((2-(N-methylacetamido)phenyl)amino)pyrimidin-2-yl)amino)-2-((2-(dimethylamino)ethyl)(methyl)amino)-4-methoxyphenyl)acrylamide]	> 100	10 to 30	77	30 to 50	30 to 50	20	479
C=CC(=O)Nc1cc(Nc2ncc(Cl)c(Nc3ccccc3NC(C)=O)n2)c(OC)cc1N(C)CCN(C)C [Example 90, N-(5-((4-((2-acetamidophenyl)amino)-5-chloropyrimidin-2-yl)amino)-2-((2-(dimethylamino)ethyl)(methyl)amino)-4-methoxyphenyl)acrylamide]	> 100	< 10	7	30 to 50	30 to 50	1	37
C=CC(=O)Nc1cc(Nc2ncc(Cl)c(Nc3cccc4c3N(C(C)=O)CC4)n2)c(OC)cc1N(C)CCN(C)C [Example 91, N-(5-((4-((1-acetylindolin-7-yl)amino)-5-chloropyrimidin-2-yl)amino)-2-((2-(dimethylamino)ethyl)(methyl)amino)-4-methoxyphenyl)acrylamide]	< 10	< 10	1	< 10	< 10	< 1	6
C=CC(=O)Nc1cc(Nc2ncc(Cl)c(Nc3cccc4c3N(C(C)=O)CC4)n2)c(OC)cc1N(C)CCNC [Example 92, N-(5-((4-((1-acetylindolin-7-yl)amino)-5-chloropyrimidin-2-yl)amino)-4-methoxy-2-(methyl(2-(methylamino)ethyl)amino)phenyl)acrylamide]	30 to 50	< 10	1	10 to 30	10 to 30	< 1	5
C=CC(=O)Nc1cc(Nc2ncc(Cl)c(Nc3cccc4c3N(C(=O)CC)CC4)n2)c(OC)cc1N(C)CCN(C)C [Example 93, N-(5-((5-chloro-4-((1-propionylindolin-7-yl)amino)pyrimidin-2-yl)amino)-2-((2-(dimethylamino)ethyl)(methyl)amino)-4-methoxyphenyl)acrylamide]	10 to 30	< 10	2	10 to 30	10 to 30	1	11
C=CC(=O)Nc1cc(Nc2ncc(Cl)c(Nc3cccc4c3N(C(=O)CC)CCC4)n2)c(OC)cc1N(C)CCN(C)C [Example 94, N-(5-((5-chloro-4-((1-propionyl-1,2,3,4-tetrahydroquinolin-8-yl)amino)pyrimidin-2-yl)amino)-2-((2-(dimethylamino)ethyl)(methyl)amino)-4-methoxyphenyl)acrylamide]	> 100	< 10	22	10 to 30	10 to 30	4	292
C=CC(=O)Nc1cc(Nc2ncc(Cl)c(Nc3cccc4c3N(C(C)=O)CCC4)n2)c(OC)cc1N(C)CCN(C)C [Example 95, N-(5-((4-((1-acetyl-1,2,3,4-tetrahydroquinolin-8-yl)amino)-5-chloropyrimidin-2-yl)amino)-2-((2-(dimethylamino)ethyl)(methyl)amino)-4-methoxyphenyl)acrylamide]	30 to 50	< 10	11	10 to 30	10 to 30	2	54
CC#CC(=O)Nc1cc(Nc2ncc(Cl)c(Nc3cccc4c3N(S(C)(=O)=O)CC4)n2)c(OC)cc1N(C)CCN(C)C [Example 96, N-(5-((5-chloro-4-((1-(methylsulfonyl)indolin-7-yl)amino)pyrimidin-2-yl)amino)-2-((2-(dimethylamino)ethyl)(methyl)amino)-4-methoxyphenyl) but-2-inamide]	> 100	< 10	10	< 10	< 10	1	87
CC#CC(=O)Nc1cc(Nc2ncc(Cl)c(Nc3cccc4c3N(C(C)=O)CC4)n2)c(OC)cc1N(C)CCN(C)C [Example 97, N-(5-((4-((1-acetylindolin-7-yl)amino)-5-chloropyrimidin-2-yl)amino)-2-((2-(dimethylamino)ethyl)(methyl)amino)-4-methoxyphenyl) but-2-inamide]	> 100	< 10	280	10 to 30	10 to 30	15	258
CC#CC(=O)Nc1cc(Nc2ncc(Cl)c(Nc3ccc(C)cc3N(C)S(C)(=O)=O)n2)c(OC)cc1N(C)CCN(C)C [Example 98, N-(5-((5-chloro-4-((4-methyl-2-(N-methylmethylsulfonamido)phenyl)amino)pyrimidin-2-yl)amino)-2-((2-(dimethylamino)ethyl)(methyl)amino)-4-methoxyphenyl) but-2-inamide]	> 100	< 10	9	10 to 30	10 to 30	< 1	53
